# Columns and labels:
# [1] = target: T1, C1-esterase inhibitor (C1-inh) (Homo sapiens, UniProt P05155); test: C1s-mediated cleavage of C2 in the presence of C1-inh (SDS-PAGE); assay type: biochemical; conditions: 10-500 μM, 6 nM C1s, 5 nM C1-inh
# T1 sequence (P05155 23-500): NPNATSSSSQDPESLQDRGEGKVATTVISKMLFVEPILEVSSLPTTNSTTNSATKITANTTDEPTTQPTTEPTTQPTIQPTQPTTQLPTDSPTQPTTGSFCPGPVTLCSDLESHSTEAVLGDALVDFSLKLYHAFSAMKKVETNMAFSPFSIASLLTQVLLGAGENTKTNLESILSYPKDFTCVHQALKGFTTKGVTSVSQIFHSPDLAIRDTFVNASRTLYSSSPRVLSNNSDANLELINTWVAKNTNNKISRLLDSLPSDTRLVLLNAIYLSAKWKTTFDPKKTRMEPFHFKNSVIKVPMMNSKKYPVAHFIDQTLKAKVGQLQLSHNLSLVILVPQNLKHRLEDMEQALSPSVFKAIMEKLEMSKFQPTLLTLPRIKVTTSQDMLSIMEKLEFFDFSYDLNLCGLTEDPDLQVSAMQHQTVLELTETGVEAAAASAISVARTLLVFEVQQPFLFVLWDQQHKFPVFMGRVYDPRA
# Procedure: We tested whether polyP affects the inhibitory properties of C1-inh on C1s-mediated cleavage and activation of complement factor C4 and C2. SDS-PAGE followed by coomassie staining of gels was used to monitor cleavage of C4 by C1s in the presence/absence of C1-inh and/or polyP in a purified system.
# Briefly, 6 nM C1s with 10-500 μM of polyP1000 were incubated in 20 mM Hepes, 0.15 M NaCl, pH 7.5, 0.01% Tween buffer for 90 minutes at 37° C. 5 nM C1-inh was added and incubated for 30 minutes. C2 was added and incubated for 5 minutes at 37° C. The reactions were quenched with 5× loading buffer and β-ME.
# [2] = test system: choroidal neovascularization; test: experimental laser-induced choroidal neovascularization (CNV) model, retina whole mounts; assay type: in vivo; conditions: rat, intravitreal injection 10′ after laser, final estimated concentration 200 μM, 5 days
# Procedure: Eleven-week-old female Long Even (LE) rats (Charles River Laboratory, Wilmington, Mass.) weighing 256 to 315 g were used. The animals were handled in accordance with institutional guidelines and the ARVO Statement for the Use of Animals in Ophthalmic and Vision Research. The rats were anesthetized by intramuscular injection of a 1 mL/kg mixture (1:1) of ketamine hydrochloride (40 mg/kg) and xylazine hydrochloride (10 mg/ml), and their pupils were dilated with tropicamide (0.5% Mydrin). Experimental choroidal neovascularization (CNV) was created as described previously (Takehana et al., Invest Ophthalmol Vis Sci, 1999, 40 (2):459-66). […]
# After laser treatment, under anesthesia, intravitreal injections were performed on a lasered eye under a dissecting microscope (Stereo dissection microscope, SMZ 1000; Nikon, Tokyo, Japan). […] After the procedure, animals were monitored in a recovery enclosure until they resumed baseline normal activity levels. […]
# Each eye cup flatmount preparation was analyzed using a confocal laser-scanning microscope (Zeiss-LSM 510 META). […] Intensity and size of GSL-IB4 and C5b-9 immunohistochemistry were analyzed using image-processing and image-analysis software Image J 1.37 (developed by Wayne Rasband, National Institute of Health, Bethesda, Md., USA). […]
structure (smiles),measurement,setting,value
"O=P(O)(O)O [P1, Orthophosphate]",effect on activity of C1-inh in interfering with C1s-mediated cleavage of C2,[1],had no effect
same,neovascularization and deposition of MAC on retina after laser injury,[2],is not protective

# — US9408871B2, “Methods for inhibiting complement activation and uses thereof” (THE UNIVERSITY OF BRITISH COLUMBIA, priority 2013, dated 2016)
